Laboratory results: the CheMixHub viscosity set
Where “and” joins values, the source holds several entries; their conditions need not be identical. Equal entries are not always repeated.

Assay: xn = mol fraction of the nth substance listed

C1CCC2=[NH+]CCCN2CC1.c1c[n-]cn1 + O
Details | viscosity [mPa·s]
298.15 K, 100 kPa, x1 = 0.2994 | 42.65

CC(C)C[C@H](NC(=O)[C@H](C)N)C(=O)O + O
viscosity [mPa·s], 101 kPa
Details | x1 = 3.33e-05 | x1 = 7.01e-05 | x1 = 0.000104 | x1 = 0.000146 | x1 = 0.000174 | x1 = 0.0002197 | x1 = 0.0002561 | x1 = 0.0002862 | x1 = 0.0003157 | x1 = 0.0003701
305.15 K | 0.7759 | 0.7781 | 0.7785 | 0.7806 | 0.7826 | 0.7869 | 0.796 | 0.8042 | 0.8098 | 0.8149
310.15 K | 0.7079 | 0.7086 | 0.7126 | 0.7129 | 0.7165 | 0.7198 | 0.7242 | 0.7292 | 0.7334 | 0.7359
315.15 K | 0.6492 | 0.6505 | 0.6525 | 0.6559 | 0.6596 | 0.6605 | 0.6629 | 0.6678 | 0.6692 | 0.6709

CCC(=O)N(CC)CC + O
298.16 K, 101 kPa
Details | viscosity [mPa·s]
x2 = 0.0649 | 1.31
x2 = 0.1684 | 1.49
x2 = 0.2965 | 1.79
x2 = 0.4448 | 2.27
x2 = 0.5923 | 2.93
x2 = 0.7652 | 3.86
x2 = 0.8001 | 3.91
x2 = 0.8352 | 3.83
x2 = 0.8933 | 3.34
x2 = 0.9093 | 3.03

CCC[n+]1ccn(C)c1.N[C@@H](CO)C(=O)[O-] + O
Details | viscosity [mPa·s]
308.15 K, 100 kPa, x2 = 0.0574 | 996.5

CCOC(N)=O + O
viscosity [mPa·s], 101.33 kPa
Details | x1 = 0.01112 | x1 = 0.02393 | x1 = 0.03411 | x1 = 0.0497 | x1 = 0.06189 | x1 = 0.07566 | x1 = 0.1253
293.15 K | 1.122 | 1.253 | 1.356 | 1.505 | 1.618 | 1.743 | 2.156
298.15 K | 0.9919 | 1.102 | 1.191 | 1.314 | 1.409 | 1.513 | 1.86

CC[NH+](C)CC.CS(=O)(=O)[O-] + O
Details | viscosity [mPa·s]
318.15 K, 100 kPa, x1 = 0.4263 | 15.65

C[C@H]1COc2c(N3CCN(C)CC3)c(F)cc3c(=O)c(C(=O)O)cn1c23 + O
viscosity [mPa·s], 100 kPa
Details | 293.15 K | 298.15 K | 303.15 K | 308.15 K | 313.15 K
x1 = 0.00015 | 1.009 | 0.8934 | 0.8026 | 0.7256 | 0.6575
x1 = 0.000344 | 1.016 | 0.889 | 0.8085 | 0.7296 | 0.6617
x1 = 0.000425 | 1.019 | 0.9064 | 0.8134 | 0.7336 | 0.6673

N=C(N)NCCC[C@H](N)C(=O)[O-].[Na+] + O
viscosity [mPa·s], 101 kPa
Details | x1 = 0.004484 | x1 = 0.008927 | x1 = 0.01333 | x1 = 0.0177 | x1 = 0.02202 | x1 = 0.02631
293.15 K | 1.199 | 1.453 | 1.745 | 2.107 | 2.501 | 2.956
303.15 K | 0.963 | 1.149 | 1.361 | 1.615 | 1.907 | 2.248
313.15 K | 0.78 | 0.925 | 1.087 | 1.278 | 1.493 | 1.744
323.15 K | 0.645 | 0.759 | 0.881 | 1.033 | 1.201 | 1.384

NC(=O)CC[C@H](N)C(=O)O + O
viscosity, 101 kPa
Details | x1 = 0.00045 | x1 = 0.0009 | x1 = 0.001 | x1 = 0.00135 | x1 = 0.001798 | x1 = 0.002247 | x1 = 0.002695 | x1 = 0.003
298.15 K | 0.897 mPa·s | – | – | 0.909 mPa·s | 0.915 mPa·s | – | 0.9269 mPa·s | 0.9238 mPa·s and 0.9238 mPa·s
303.15 K | 0.8032 mPa·s | – | 0.812 mPa·s | 0.8135 mPa·s | 0.8186 mPa·s | 0.8237 mPa·s | 0.8288 mPa·s | 0.8262 mPa·s and 0.8262 mPa·s
308.15 K | – | 0.7288 mPa·s | 0.7318 mPa·s and 0.7318 mPa·s | – | – | – | 0.7464 mPa·s | 0.7442 mPa·s
313.15 K | – | 0.6613 mPa·s | – | 0.6651 mPa·s | 0.6689 mPa·s | 0.6727 mPa·s | 0.6765 mPa·s | 0.6746 mPa·s
318.15 K | 0.6013 mPa·s | 0.6048 mPa·s | 0.6071 mPa·s | 0.6082 mPa·s | 0.6115 mPa·s | 0.6148 mPa·s | 0.6181 mPa·s | 0.6166 mPa·s

O=C[C@H](O)[C@@H](O)[C@@H](O)[C@H](O)CO + O
viscosity
Details | 298.15 K | 308.15 K
101 kPa, x1 = 0.0002 | 0.9056 mPa·s and 0.9056 mPa·s | –
101 kPa, x1 = 0.001 | 0.9592 mPa·s and 0.9592 mPa·s | –
101 kPa, x1 = 0.0018 | 0.9761 mPa·s and 0.9761 mPa·s | –
101 kPa, x1 = 0.002 | 0.9675 mPa·s and 0.9675 mPa·s | –
101 kPa, x1 = 0.003502 | 0.971 mPa·s | –
101 kPa, x1 = 0.00393 | 0.9552 mPa·s | 0.814 mPa·s
101 kPa, x1 = 0.00634 | 1.043 mPa·s | 0.8355 mPa·s
101 kPa, x1 = 0.01867 | 1.505 mPa·s | –
101.3 kPa, x1 = 0.02116 | 1.511 mPa·s | –

O=P([O-])(O)O.[K+] + O
viscosity [mPa·s], 101 kPa
Details | x1 = 0.0018 | x1 = 0.0054 | x1 = 0.0089 | x1 = 0.012 | x1 = 0.016
298.15 K | 0.9211 | 0.9772 | 1.037 | 1.11 | 1.186
303.15 K | 0.8252 | 0.8757 | 0.9339 | 0.9884 | 1.062
308.15 K | 0.7468 | 0.7881 | 0.837 | 0.8844 | 0.9335

O=S(=O)(O)O + O
100 kPa
Details | viscosity [mPa·s]
303.15 K, x1 = 0.007147 | 0.8615
313.15 K, x1 = 0.0566 | 1.125

[Ce+3].[Cl-].[Cl-].[Cl-] + O
Details | viscosity
298.15 K, 101.33 kPa, x1 = 0.06822 | 12.27 mPa·s and 12.27 mPa·s
